Reference: patent US8173606B2, “Sulfated oligosaccharide derivatives” (Progen Pharmaceuticals Limited, priority 2004, dated 2012)
Marks after values point to notes of the source that are not given here.

Key:
[1] = Pharmacokinetic studies of 35S-labelled compounds after iv administration; conditions: rat; for Urinary Recovery: urine collected 0-48 h
Description: The polyol precursors for PG500, 501, 503, 504, 506 and PI-88 (2 mg of each) were desiccated under vacuum over P2O5 for 3 days. Into each vial was syringed 50 μL of a stock solution of 1.77 mg (2.0 mCi) of ^35SO3.pyridine complex and 2 mg SO3.Me3N in 300 μL of anhydrous DMF (Aldrich, redried over freshly ignited 3 A molecular sieves). A further 600 μL of anhydrous DMF was added to the SO3 vial and was distributed to each sample vial. The samples were heated to 60° for 66 hr. SO3.Me3N (14 mg in 300 μL anhydrous DMF) was added to each vessel and the resulting solutions were heated to 60° overnight. The vials were cooled to room temperature and stored at −80° C. awaiting purification.
Each sample was quenched by addition of Na2CO3 (sat. aqu. adjusted to pH 8-9), evaporated to dryness and subjected to SEC (Biogel P2, 2.6×90 cm, flow rate 30 mL/hr, 5 min/fraction). Fractions containing desired material were detected using a G-M counter and DMB test followed by CE.
Male Sprague Dawley rats (250-350 g) were used. The animals were allowed free access to food and water before and during the experiments, during which they were maintained unrestrained in metabolism cages. Rats were anaesthetized with isoflurane (Forthane®). A catheter was inserted in the external jugular vein via an incision in the neck, and was passed under the skin to a second incision in the skin of the back (midline vicinity of the scapulae). This was then exteriorized with the protection of a light metal spring. The incision was closed and the spring fixed to the skin with Michel sutures so that the rats had full range of movement. The animals were carefully monitored during recovery (1-4 h).
All doses were administered as a bolus intravenous injection of 2.5 mg/kg in a dose volume of 2 mL/kg. The total amount of radioactivity administered to each rat was 0.5-10 μCi. The dose level used in this study is 10-fold lower than the no-effect dose previously established for acute toxicity of PI-88. Blood samples (˜250 μL) were collected predose and at 5, 15, 30, 45 min, and 1, 1.5, 2, 4, 8, 12, 24, 36 and 48 h after dosing. The blood samples were immediately centrifuged and the plasma collected. At completion of the experiments, the animals were killed by a lethal overdose of IV pentobarbitone anaesthetic (Nembutal®). Urine was collected from each animal at intervals of 0-12 h, 12-24 h and 24-48 h after dosing. Cage washings (˜15 mL of deionised water) were also collected. At the end of the experiment, bladder contents were aspirated from each animal and added to the 24-48 h voidings. Feces were collected over the same time intervals as the urine.
Aliquots of plasma (100 μL), urine and cage washings (500 μL) were transferred directly to 6 mL polypropylene scintillation vials for determination of radioactivity. Feces collected during each time period (from one animal dosed with each compound) were weighed and homogenised in 4 volumes of deionised water using a mechanical homogeniser. Approximately 1 g (accurately weighed) of this slurry was transferred to a 20 mL glass scintillation vial, 2 mL of tissue solubiliser added and the vials capped and incubated at 60° C. for at least 24 h. Radioactivity was measured following mixing of samples with Packard Ultima Gold liquid scintillation counting cocktail (2.0 mL for plasma and dose, 5.0 mL for urine and cage washings, 10 mL for feces). Counting was conducted on a Packard Tr-Carb liquid scintillation counter. Any result less than three times the background was considered less than the lower limit of quantitation not used in calculations. Plasma, urine and cage washings were counted in triplicate within 5 days of collection and were not corrected for radiochemical decay. Feces were processed as a batch at the completion of the study and the counts from these samples were corrected for radiochemical decay.

[2] = system: herpes simplex virus (HSV-1) KOS321 strain; assay: Antiviral assay, HSV-1 cell-to-cell spread (plaque area); format: cell-based; conditions: African green monkey kidney cells; compound in overlay medium after infection, 3 days
Description: (§1) In panel A, the results are expressed as a percentage of the number of viral plaque forming units (PFU) formed in cells infected with the compound-treated virions relative to mock-treated controls. In panel B, the results are expressed as a percentage of the average area of 20 viral plaques formed in the continuous presence of compound relative to mock-treated control cells. Monolayer cultures of African green monkey kidney cells[35] and herpes simplex virus (HSV-1) KOS321 strain[36] were used throughout. The antiviral assays on the compounds were performed as described by Nyberg et al.[13] Briefly, the effects of the compounds on the infection of cells by exogenously added virus were tested by mixing serial fivefold dilutions of compound (at 0.032-20 μM) with approximately 200 plaque forming units of the virus. Following incubation of the virus and compound for 10 min at room temperature, the mixture was added to the cells and left on the cell monolayer for 2 h at 37° C. Subsequently, the inoculum was aspirated and replaced with an overlay medium of 1% methylcellulose solution in Eagle's minimum essential medium (EMEM). The viral plaques that developed after incubation of cells for 3 days at 37° C. were stained with 1% crystal violet solution and counted. The effects of the compounds on cell-to-cell spread of HSV-1 were tested by adding serial fivefold dilutions of compound (at 0.032-20 μM) in the serum-free overlay medium to cells after their infection with HSV-1. After incubation of the compound with the cells for 3 days at 37° C., the images of 20 plaques were captured and subjected to area determination using IM500 software (Leica).

[3] = system: herpes simplex virus (HSV-1) KOS321 strain; assay: Antiviral assay, HSV-1 infectivity (plaque forming units); format: cell-based; conditions: African green monkey kidney cells; virus pre-incubated with compound 10 min
Description: as §1

[4] = target: FGF-1 (Homo sapiens, UniProt P05230); assay: SPR based solution affinity assay, growth factor binding (FGF-1); conditions: heparin-coated sensorchip, HBS-EP buffer, 25° C.; read-out: Kd aFGF
Chain of FGF-1 (P05230 whole entry, species assumed): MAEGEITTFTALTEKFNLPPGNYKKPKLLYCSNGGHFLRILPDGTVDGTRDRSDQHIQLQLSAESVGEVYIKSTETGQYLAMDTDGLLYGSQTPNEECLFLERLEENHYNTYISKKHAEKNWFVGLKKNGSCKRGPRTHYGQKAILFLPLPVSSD
Description: (§2) Binding affinities of ligands for the growth factors FGF-1, FGF-2 and VEGF were measured using a surface plasmon resonance (SPR) based solution affinity assay. The principle of the assay is that heparin immobilised on a sensorchip surface distinguishes between free and bound growth factor in an equilibrated solution of the growth factor and a ligand. Upon injection of the solution, the free growth factor binds to the immobilised heparin, is detected as an increase in the SPR response and its concentration thus determined. A decrease in the free growth factor concentration as a function of the ligand concentration allows for the calculation of the dissociation constant, Kd. It is important to note that ligand binding to the growth factors can only be detected when the interaction involves the HS binding site, thus eliminating the chance of evaluating non-specific binding to other sites on the protein. A 1:1 stoichiometry has been assumed for all protein:ligand interactions.
(§3) For the testing of growth factor binding activity, heparin-coated sensorchips were used. Their preparation, via immobilisation of biotinylated BSA-heparin on a streptavidin-coated sensorchip, has been described.[5] Heparin has also been immobilised via aldehyde coupling using either adipic acid dihydrazide or 1,4-diaminobutane. […] Ligands binding to FGF-1 and VEGF were measured in HBS-EP buffer (10 mM HEPES, pH 7.4, 150 mM NaCl, 3.0 mM EDTA and 0.005% (v/v) polysorbate 20), while binding to FGF-2 was measured in HBS-EP buffer containing 0.3 M NaCl.[5] […] For each assay mixture, 50-200 μL of solution was injected at 5-40 μL/min and the relative binding response measured. […]
(§4) Sensorgram data were analysed using the BIAevaluation software (BIAcore). […]
(§5) [formula] and the binding equation[5] can be expressed as
(§6) The Kd values given are the values fit, using the binding equation, to a plot of [P] versus [L]total. Where Kd values were measured in duplicate, the values represent the average of the duplicate measurements. […]

[5] = target: T1, VEGF (Homo sapiens, UniProt P15692); assay: SPR based solution affinity assay, growth factor binding (VEGF); conditions: heparin-coated sensorchip, HBS-EP buffer, 25° C.
T1 sequence (P15692 27-191 isoform P15692-4): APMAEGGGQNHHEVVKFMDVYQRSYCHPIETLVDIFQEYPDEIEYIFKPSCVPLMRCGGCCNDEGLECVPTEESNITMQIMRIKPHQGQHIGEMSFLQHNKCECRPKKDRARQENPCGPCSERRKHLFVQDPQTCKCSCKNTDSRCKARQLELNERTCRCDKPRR
Description: as §2, §3, §4, §5, §6

[6] = target: FGF-2 (Homo sapiens, UniProt P09038); assay: SPR based solution affinity assay, growth factor binding (FGF-2); conditions: heparin-coated sensorchip, HBS-EP buffer containing 0.3 M NaCl, 25° C.; read-out: Kd bFGF
Chain of FGF-2 (P09038 143-288, species assumed): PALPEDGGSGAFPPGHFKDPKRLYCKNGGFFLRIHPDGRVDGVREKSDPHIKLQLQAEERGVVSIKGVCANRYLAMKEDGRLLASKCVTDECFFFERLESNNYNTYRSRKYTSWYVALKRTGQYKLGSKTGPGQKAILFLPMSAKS
Description: as §2, §3, §4, §5, §6

[7] = target: T2, heparanase (Homo sapiens, UniProt Q9Y251); assay: Heparanase inhibition, Microcon ultrafiltration assay; format: biochemical; conditions: 3H labelled HS, pH 5.0, 22° C., 2.5 h
T2 sequence (Q9Y251 158-543 limits assumed): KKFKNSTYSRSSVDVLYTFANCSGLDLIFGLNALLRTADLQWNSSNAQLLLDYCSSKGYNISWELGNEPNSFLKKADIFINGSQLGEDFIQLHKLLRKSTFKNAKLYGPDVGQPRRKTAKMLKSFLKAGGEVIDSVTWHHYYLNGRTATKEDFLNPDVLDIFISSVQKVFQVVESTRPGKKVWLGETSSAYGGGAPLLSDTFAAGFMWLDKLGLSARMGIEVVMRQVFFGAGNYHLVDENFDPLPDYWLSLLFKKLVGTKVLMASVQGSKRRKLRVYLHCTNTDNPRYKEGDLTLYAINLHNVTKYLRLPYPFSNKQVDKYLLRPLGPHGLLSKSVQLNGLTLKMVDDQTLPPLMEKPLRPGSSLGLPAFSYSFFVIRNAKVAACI
T2 sequence (Q9Y251 36-109 limits assumed): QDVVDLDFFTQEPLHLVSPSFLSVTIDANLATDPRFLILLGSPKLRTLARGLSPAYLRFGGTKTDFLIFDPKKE
Description: The heparanase assays were performed using a Microcon ultrafiltration assay. The assays rely on the principle of physically separating heparan sulfate (HS) that has been digested by heparanase from native HS to determine heparanase activity. The assay uses ultrafiltration devices (Microcon YM-10) to separate the smaller heparanase-cleaved HS fragments from native HS.
A reaction was set up with a volume of 90 μL, • 40 mM acetate buffer (pH 5.0) • 0.1 mg/mL BSA • 90 ng heparanase • 2.5 μM ^3H labelled HS • various concentrations of inhibitors.
The reactions were set up with all components except the ^3H labelled HS and allowed to equilibrate for 10 min at 22° C. The assays were then initiated by adding the HS and immediately 20 μL was taken, mixed with 80 μL of 10 mM phosphate (pH 7.0) and the 100 μL transferred to a Microcon YM-10 concentrator which was then centrifuged at approximately 14000 g for 5 min. The solution that passed through the membrane (filtrate) was retained. This sample was considered the time=0 sample. The assays (now 70 μL in volume) were allowed to react at 22° C. for 2.5 h and then the filtration step was repeated for three aliquots of 20 μL from each assay.
The time=0 filtrate and the three 2.5 h filtrate samples were counted for ^3H. The difference between the time=0 and the averaged 2.5 h samples gave the amount of heparanase activity. All inhibition assays were run with a heparanase standard assay which was identical to the assay composition above except no inhibitor was present and the amount of heparanase inhibition in the other assays determined by comparison with this standard.

[8] = iv bolus 2.5 mg/kg, plasma radioactivity

Compound	IC50 [2] [µM]	Cl* (apparent) ([1]; iv bolus 2.5 mg/kg)	Vd* (apparent) ([1]; iv bolus 2.5 mg/kg)	k* (apparent) ([1]; iv bolus 2.5 mg/kg)	C0 [1, 8]	Urinary Recovery ([1]; iv bolus 2.5 mg/kg)	also measured
PI-88 [reference compound]							AUC0-12 h ([1]; in vivo, iv, 2.5 mg/kg): 9.6 ± 1.9 μg-eq/h · mL; C0 ([1]; in vivo, iv, 2.5 mg/kg): 17.7 ± 2.23 μg-eq/mL; Cl* (apparent) ([1]; in vivo, iv, 2.5 mg/kg): 250 ± 27.6 mL/h/kg; Vd* (apparent) ([1]; in vivo, iv, 2.5 mg/kg): 43.1 ± 1.9 mL; t1/2* (apparent) ([1]; in vivo, iv, 2.5 mg/kg): 49.8 ± 5.4 min
PEG5000 Polysulfate [PG504]	11	172 ± 11.8 mL/h/kg	24.9 ± 2.9 mL	0.247 ± 0.003 h⁻¹	30.5 ± 2.3 μg-eq/mL	66.5 ± 9.4 % dose	AUC0-12 h [1, 8]: 14.7 ± 1.2 μg-eq/h · mL
PEG2000 Polysulfate [PG506]	7	404 ± 59.5^ mL/h/kg	44.5 ± 4.5^ mL	1.17 ± 0.024^ h^−1	17.1 ± 1.8^ μg-eq/mL	79.1 ± 3.6^ % dose	IC50 [3]: 10 µM; AUC0-12 h, calculated over 0-8 h post dose interval only ([1]; iv bolus 2.5 mg/kg, 0-8 h post dose interval only): 6.2 ± 1.0^a μg-eq/h · mL
[N-]=[N+]=NC1OC(COS(=O)(=O)O)C(OC2OC(COS(=O)(=O)O)C(OC3OC(COS(=O)(=O)O)C(OC4OC(COS(=O)(=O)O)C(OC5OC(COS(=O)(=O)O)C(OC6OC(COS(=O)(=O)O)C(OS(=O)(=O)O)C(OS(=O)(=O)O)C6OS(=O)(=O)O)C(OS(=O)(=O)O)C5OS(=O)(=O)O)C(OS(=O)(=O)O)C4OS(=O)(=O)O)C(OS(=O)(=O)O)C3OS(=O)(=O)O)C(OS(=O)(=O)O)C2OS(=O)(=O)O)C(OS(=O)(=O)O)C1OS(=O)(=O)O (stereo not drawn) [PG505]							Kd [4]: 0.00196 ± 0.0003 µM; Kd [5]: 0.0048 ± 0.0004 µM; Kd [6]: 0.137 ± 0.012 µM; IC50 [7]: 1.04 ± 0.147 µM
